Reference: patent USRE46943E1, “Radioprotector compounds and methods” (PETER MACCALLUM CANCER INSTITUTE, priority 2010, dated 2018)

Key:
[1] = tested on: transformed human keratinocyte cell line (FEP 1811); assay: Clonogenic survival cell culture assay for radioprotective activity (12 Gy 137Cs gamma irradiation); type: cell-based; settings: 12 Gy; for DMF10 (dose modification factor at a concentration of 10 microM of radioprotector): 10 microM radioprotector; for DMFm (dose modification factor at maximum protection): DMF=Dp/Dc at survival level Sm; for PF (protection factor = Sm/So): survival at maximum protection vs irradiation only
Procedure, shortened: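 Survival after irradiation gave protection factor PF = Sm/So (maximum-protection survival over irradiation-only survival). DMF = Dp/Dc is the ratio of doses giving survival Sm with and without radioprotector. DMF10 uses survival at 10 microM radioprotector in place of Sm.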

[2] = tested on: transformed human keratinocyte cell line (FEP 1811); assay: Clonogenic survival cell culture assay for cytotoxicity; type: cell-based; settings: Homo sapiens, Keratinocyte, light or radiation study; un-irradiated keratinocytes, one hour drug exposure, colonies counted after eight days; read-out: C50 (concentration of radioprotector that results in 50% clonogenic survival)
Procedure, shortened: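 Mid-log monolayers exposed to test drug for 1 h, then pronase-dispersed and plated; colonies counted after 8 days. For […], irradiation at 0.6 Gy per minute began 30 min after drug addition, with total drug exposure held at 60 min before plating for clonogenic survival.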

mice = assay: Radioprotection of mouse jejunum, subcutaneous administration: local reaction at injection site; type: in vivo; settings: subcutaneous solutions in polyethylene glycol (MW 400), similar experiments with the jejunum model
Procedure: 2-Hydroxypropyl-β-cyclodextrin (HPCD, Sigma-Aldrich, typical MW 1540) vehicle solution was prepared by dissolving 3.6 g of HPCD in 9.3 mL of phosphate buffered saline (PBS) resulting in 30% v/w solution. […] The concentration of M2PB was measured following appropriate dilution in 45% MeOH 0.1% TFA using an extinction coefficient […] at 345 nm. The M2PB/HPCD stock was diluted to 8.75 mg/mL (22 mM) in HPCD vehicle to produce the final M2PB/HPCD formulation, which was injected subcutaneously into mice, between the shoulder blades (scruff of the neck) at a volume of 8×10^−3 ml/g body weight.
The subsequent irradiation and analysis was as described for Example 56.

SMILES	melting point	DMF10 (dose modification factor at a concentration of 10 microM of radioprotector) [1]	DMFm (dose modification factor at maximum protection) [1]	PF (protection factor = Sm/So) [1]	IC50 [2] [µM]	local reaction or toxicity at the site of subcutaneous injection (mice)
CN(C)c1ccc2nc(-c3ccc4nc(-c5ccccn5)[nH]c4c3)[nH]c2c1 [Example 28, 2-(5′-(5″-(Dimethylamino)benzimidazol-2″-yl)benzimidazol-2′-yl)pyridine]	180 °C (dec.)	1.30	1.57	13.5	60.8	
CN(C)C1CCN(c2ccc3nc(-c4ccc5nc(-c6ccccn6)[nH]c5c4)[nH]c3c2)CC1 [Example 29, 2-(5′-(5″-(4′″-(Dimethylamino)piperidin-1′″-yl)benzimidazol-2″-yl)benzimidazol-2′-yl)pyridine]	198 to 205 °C	1.54	1.76	18.2	46.9	
COc1cc(-c2nc3cc(N4CCN(C)CC4)ccc3[nH]2)cc2nc(-c3ccccn3)[nH]c12 [Example 30, 2-(4′-Methoxy-6′-(5″-(4′″-methylpiperazin-1′″-yl)benzimidazol-2″-yl)benzimidazol-2′-yl)pyridine]	200 °C (dec.)	1.78	1.97	13.3	158	
CN1CCN(c2ccc3nc(-c4ccc5cc(-c6ccccn6)[nH]c5c4)[nH]c3c2)CC1 [Example 31, 2-(6′-(5″-(4′″-Methylpiperazin-1′″-yl)benzimidazol-2″-yl)indol-2′-yl)pyridine]	245 to 247 °C	2.09	2.20	22.8	19.8	
COc1cc2nc(-c3ccccn3)[nH]c2cc1-c1nc2ccc(N3CCN(C)CC3)cc2[nH]1 [Example 32, 2-(5′-methoxy-6′-(5″-(4′″-methylpiperazin-1′″-yl)benzimidazol-2″-yl)benzimidazol-2′-yl)pyridine]	190 to 195 °C	1.32	1.56	23.6	112	
COCCN(C)c1ccc2[nH]c(-c3ccc4[nH]c(-c5ccccn5)nc4c3)nc2c1 [Example 38, 2-(5′-(5″-((2′″-Methoxyethyl)(methyl)amino)benzimidazol-2″-yl)benzimidazol-2′-yl)pyridine]	150 to 155 °C	1.32	1.55	8.8	41.2	
COCCOCCNc1ccc2nc(-c3ccc4nc(-c5ccccn5)[nH]c4c3)[nH]c2c1 [Example 39, 2-(5′-(5″-(2′″-(2″″-methoxyethoxy)ethylamino)benzimidazol-2″-yl)benzimidazol-2′-yl)pyridine]	183 to 186 °C	1.50	2.70	171.5	173	
OCCN1CCN(c2ccc3nc(-c4ccc5nc(-c6ccccn6)[nH]c5c4)[nH]c3c2)CC1 [Example 41, 2-(5′-(5″-(4′″-(2″″-hydroxyethyl)piperazin-1′″-yl)benzimidazol-2″-yl)benzimidazol-2′-yl)pyridine]	218 to 221 °C	1.44	1.95	19.6	90.6	
c1ccc(-c2nc3ccc(-c4nc5ccc(NN6CCOCC6)cc5[nH]4)cc3[nH]2)nc1 [Example 42, 2-(5′-(5″-(morpholinoamino)benzimidazol-2″-yl)benzimidazol-2′-yl)pyridine]	198 to 205 °C	1.38	1.86	17.8	206	
CN1CCN(c2ccc3nc(-c4ccc5nc(-c6cc(C(F)(F)F)ccn6)[nH]c5c4)[nH]c3c2)CC1 [Example 48, 2-(5′-(5″-(4′″-methylpiperazin-1′″-yl)benzimidazol-2″-yl)benzimidazol-2′-yl)-4-(trifluoromethyl)pyridine]	203 to 208 °C	2.58	2.75	63.8	23.3	
CN1CCN(c2ccc3nc(-c4ccc5nc(-c6ccc(C(F)(F)F)cn6)[nH]c5c4)[nH]c3c2)CC1 [Example 49, 2-(5′-(5″-(4′″-methylpiperazin-1′″-yl)benzimidazol-2″-yl)benzimidazol-2′-yl)-5-(trifluoromethyl)pyridine]	320 °C (dec.)	2.21	2.38	33.1	12.2	
Cc1ccnc(-c2nc3ccc(-c4nc5ccc(N6CCC(O)CC6)cc5[nH]4)cc3[nH]2)c1 [Example 50, 2-(5′-(5″-(4′″-hydroxypiperidin-1′″-yl)benzimidazol-2″-yl)benzimidazol-2′-yl)-4-methylpyridine]	204 to 209 °C	1.33	1.79	23.5	134	
Cc1ccc(-c2nc3ccc(-c4nc5ccc(N6CCC(O)CC6)cc5[nH]4)cc3[nH]2)nc1 [Example 51, 2-(5′-(5″-(4′″-hydroxypiperidin-1′″-yl)benzimidazol-2″-yl)benzimidazol-2′-yl)-5-methylpyridine]	208 to 213 °C	1.90	2.07	58.7	124	
Cc1cc(N(C)C)ccc1-c1nc2ccc(-c3nc4ccc(N5CCN(C)CC5)cc4[nH]3)cc2[nH]1 [methylproamine, reference compound]						had been observed
